Several values for one entry are separate records, joined by “and”; a condition that tells them apart may be missing. Equal entries are not always repeated. Toxic doses and inconclusive results are not listed. The calls were made as follows: active = survival T/C of 150% or more; inactive = T/C below 125% in these data.
System: P388 leukemia ip, CD2F1 mice, survival T/C
Experiment: NCI In Vivo Anticancer Drug Screen. Data for tumor model P388 Leukemia (intraperitoneal) in CD2F1 (CDF1) mice
Settings: endpoint: median survival time, higher = longer survival
Summary of the method: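 Mice carrying the transplanted tumor received test compound or vehicle. Survival was recorded in each group, and the value is the treated-group measurement divided by that of the vehicle-treated control group.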

[1] = dose: 60.0 mg/kg/injection, schedule: Q01DX005 (ip), vehicle: saline with Tween-80
[2] = dose: 120.0 mg/kg/injection, schedule: Q01DX005 (ip), vehicle: saline with Tween-80
[3] = dose: 240.0 mg/kg/injection, schedule: Q01DX005 (ip), vehicle: saline with Tween-80
[4] = dose: 50.0 mg/kg/injection, schedule: Q01DX009 (ip), vehicle: Klucel (hydroxypropylcellulose) (HPC)
[5] = dose: 100.0 mg/kg/injection, schedule: Q01DX009 (ip), vehicle: Klucel (hydroxypropylcellulose) (HPC)
[6] = dose: 100.0 mg/kg/injection, schedule: Q01DX005 (ip), vehicle: Klucel (hydroxypropylcellulose) (HPC)
[7] = dose: 50.0 mg/kg/injection, schedule: Q01DX009 (ip), vehicle: saline with Tween-80
[8] = dose: 100.0 mg/kg/injection, schedule: Q01DX009 (ip), vehicle: saline with Tween-80
[9] = dose: 200.0 mg/kg/injection, schedule: Q01DX009 (ip), vehicle: saline with Tween-80
[10] = dose: 12.5 mg/kg/injection, schedule: Q01DX005 (ip), vehicle: saline with Tween-80
[11] = dose: 25.0 mg/kg/injection, schedule: Q01DX005 (ip), vehicle: saline with Tween-80
[12] = dose: 50.0 mg/kg/injection, schedule: Q01DX005 (ip), vehicle: saline with Tween-80
[13] = dose: 100.0 mg/kg/injection, schedule: Q01DX005 (ip), vehicle: saline with Tween-80
[14] = dose: 200.0 mg/kg/injection, schedule: Q01DX005 (ip), vehicle: saline with Tween-80

Measured: T/C

Cc1c(NC(=O)CCl)c(=O)oc2c(C)c3occc(=O)c3cc12
inactive: dose: 30.0 mg/kg/injection, schedule: Q01DX005 (ip), vehicle: saline with Tween-80 100 % of control | [1] 89 % of control and 97 % of control | [2] 90 % of control | [3] 99 % of control

CC(C(C(=O)N1CCCCC1)N1CCCCC1)N1CCCCC1 (centres undefined)
inactive: dose: 100.0 mg/kg/injection, schedule: Q01DX009 (ip), vehicle: saline 99 % of control | dose: 200.0 mg/kg/injection, schedule: Q01DX009 (ip), vehicle: saline 87 % of control | dose: 400.0 mg/kg/injection, schedule: Q01DX009 (ip), vehicle: saline 97 % of control

CCCCCCCCC(=O)C(=O)c1ccc(O)cc1O
inactive: [4] 113 % of control | [5] 113 % of control | dose: 200.0 mg/kg/injection, schedule: Q01DX009 (ip), vehicle: Klucel (hydroxypropylcellulose) (HPC) 113 % of control

CCCC(=O)N(CCC(N)=O)c1ncc([N+](=O)[O-])s1
inactive: dose: 25.0 mg/kg/injection, schedule: Q01DX001 (ip), vehicle: saline 94 % of control | dose: 50.0 mg/kg/injection, schedule: Q01DX001 (ip), vehicle: saline 100 % of control | dose: 100.0 mg/kg/injection, schedule: Q01DX001 (ip), vehicle: saline 100 % of control

COc1ccc(-c2c(N)cnc(C(=O)O)c2C)c(OCc2ccccc2)c1OC
inactive: dose: 12.5 mg/kg/injection, schedule: Q01DX009 (ip), vehicle: other 108 % of control | dose: 25.0 mg/kg/injection, schedule: Q01DX009 (ip), vehicle: other 105 % of control | dose: 50.0 mg/kg/injection, schedule: Q01DX009 (ip), vehicle: other 102 % of control | dose: 100.0 mg/kg/injection, schedule: Q01DX009 (ip), vehicle: other 97 % of control | dose: 200.0 mg/kg/injection, schedule: Q01DX009 (ip), vehicle: other 99 % of control

CCCCNc1nc(C(F)(F)F)nc2nc[nH]c12
inactive: dose: 50.0 mg/kg/injection, schedule: Q01DX005 (ip), vehicle: Klucel (hydroxypropylcellulose) (HPC) 103 % of control | [6] 94 % of control | dose: 200.0 mg/kg/injection, schedule: Q01DX005 (ip), vehicle: Klucel (hydroxypropylcellulose) (HPC) 94 % of control

O=C(NC(=NC(=Nc1ccccc1)c1ccccc1)c1ccccc1)c1ccccc1
inactive: [7] 99 % of control | [8] 102 % of control | [9] 99 % of control

O=C(NCCCCCCCNC(=O)C12CC3CC(CC(C3)C1)C2)C12CC3CC(CC(C3)C1)C2
inactive: [10] 93 % of control | [11] 89 % of control | [12] 88 % of control and 89 % of control

CC(=O)c1ccccc1OCC(O)CNc1ccc(Cl)cc1C(=O)c1ccccc1 (centres undefined)
inactive: [1] 99 % of control and 92 % of control | [2] 92 % of control | [3] 89 % of control and 96 % of control

C=C1C(O)C2OC3(CCC(/C=C/C(C)C4CC5(C)SC5C5(OC(CC(C)(O)C(=O)O)CCC5O)O4)O3)CCC2OC1C(O)CC(C)C1OC2(CCCCO2)CCC1C (centres undefined)
inactive: dose: 1.87 micrograms/kg/injection, schedule: Q01DX005 (ip), vehicle: saline + alcohol 102 % of control and 103 % of control | dose: 3.75 micrograms/kg/injection, schedule: Q01DX005 (ip), vehicle: saline + alcohol 103 % of control and 120 % of control and 93 % of control | dose: 7.5 micrograms/kg/injection, schedule: Q01DX005 (ip), vehicle: saline + alcohol 100 % of control and 103 % of control | dose: 15.0 micrograms/kg/injection, schedule: Q01DX005 (ip), vehicle: saline + alcohol 111 % of control

O=C(CCCCC(=O)Nc1ccc2[nH]c3ccccc3c(=O)c2c1)Nc1ccc2[nH]c3ccccc3c(=O)c2c1
inactive: [12] 104 % of control | [13] 105 % of control | [14] 100 % of control

CCCC(NC(=O)OCc1ccccc1)C(=O)NC(C)C(=O)O (centres undefined)
inactive: dose: 25.0 mg/kg/injection, schedule: Q01DX009 (ip), vehicle: Klucel (hydroxypropylcellulose) (HPC) 104 % of control | [4] 105 % of control | [6] 100 % of control | [5] 106 % of control

S=c1nc(-c2ccccc2)oc(=NC2CCCCC2)n1C1CCCCC1
inactive: [12] 98 % of control | [13] 101 % of control | [14] 109 % of control

COc1ccccc1N1C(=O)CSC1=S
inactive: [8] 86 % of control | dose: 100.0 mg/kg/injection, schedule: Q04DX003 (ip), vehicle: saline with Tween-80 90 % of control | [9] 90 % of control | dose: 200.0 mg/kg/injection, schedule: Q04DX003 (ip), vehicle: saline with Tween-80 90 % of control | dose: 400.0 mg/kg/injection, schedule: Q04DX003 (ip), vehicle: saline with Tween-80 100 % of control

CCc1nc(N)nc(N)c1-c1ccc([N+](C)(C)C)cc1
inactive: dose: 6.25 mg/kg/injection, schedule: Q01DX005 (ip), vehicle: Klucel (hydroxypropylcellulose) (HPC) 101 % of control | dose: 12.5 mg/kg/injection, schedule: Q01DX005 (ip), vehicle: Klucel (hydroxypropylcellulose) (HPC) 101 % of control | dose: 25.0 mg/kg/injection, schedule: Q01DX005 (ip), vehicle: Klucel (hydroxypropylcellulose) (HPC) 103 % of control

Cc1ccc(/C=C/C(=O)C(C)CN(C)C)cc1 (centres undefined)
inactive: dose: 15.0 mg/kg/injection, schedule: Q01DX005 (ip), vehicle: saline 100 % of control | dose: 30.0 mg/kg/injection, schedule: Q01DX005 (ip), vehicle: saline 99 % of control | dose: 60.0 mg/kg/injection, schedule: Q01DX005 (ip), vehicle: saline 98 % of control and 100 % of control | dose: 120.0 mg/kg/injection, schedule: Q01DX005 (ip), vehicle: saline 100 % of control and 106 % of control and 107 % of control | dose: 240.0 mg/kg/injection, schedule: Q01DX005 (ip), vehicle: saline 119 % of control

O=C1C=C2COC(O)CC2CC1 (centres undefined)
inactive: dose: 100.0 mg/kg/injection, schedule: Q04DX003 (ip), vehicle: Klucel (hydroxypropylcellulose) (HPC) 104 % of control | dose: 200.0 mg/kg/injection, schedule: Q04DX003 (ip), vehicle: Klucel (hydroxypropylcellulose) (HPC) 105 % of control | dose: 400.0 mg/kg/injection, schedule: Q04DX003 (ip), vehicle: Klucel (hydroxypropylcellulose) (HPC) 111 % of control

C/C(=C\Cl)CN(C)C
inactive: dose: 25.0 mg/kg/injection, schedule: Q01DX009 (ip), vehicle: saline with Tween-80 111 % of control | [7] 111 % of control | [8] 116 % of control

CC1(C)N=C(N)N=C(N)N1c1ccc(Cl)cc1Cl
inactive: dose: 12.0 mg/kg/injection, schedule: Q01DX005 (ip), vehicle: saline 102 % of control | dose: 25.0 mg/kg/injection, schedule: Q01DX005 (ip), vehicle: saline 100 % of control | dose: 50.0 mg/kg/injection, schedule: Q01DX005 (ip), vehicle: saline 104 % of control and 98 % of control

C1=C(C2=C[P+](c3ccccc3)(c3ccccc3)C=C(c3ccccc3)O2)OC(c2ccccc2)=C[P+]1(c1ccccc1)c1ccccc1
inactive: [10] 103 % of control | [11] 100 % of control

COc1ccc(C2=C(O)c3cc4ccccc4nc3S2(=O)=O)cc1
inactive: dose: 50.0 mg/kg/injection, schedule: Q04DX002 (ip), vehicle: saline 103 % of control | dose: 100.0 mg/kg/injection, schedule: Q04DX002 (ip), vehicle: saline 100 % of control | dose: 200.0 mg/kg/injection, schedule: Q04DX002 (ip), vehicle: saline 102 % of control

C1CCCCCc2c(-c3noc4c3CCCCCCCCCC4)noc2CCCC1
inactive: dose: 60.0 mg/kg/injection, schedule: Q01DX005 (ip), vehicle: Klucel + Tween-80 105 % of control | dose: 120.0 mg/kg/injection, schedule: Q01DX005 (ip), vehicle: Klucel + Tween-80 97 % of control | dose: 240.0 mg/kg/injection, schedule: Q01DX005 (ip), vehicle: Klucel + Tween-80 100 % of control

— PubChem BioAssay AID330 (DTP/NCI, 2004)
